Data from patent US20220347168A1, “LUNG TARGETED ANTICANCER THERAPIES WITH LIPOSOMAL ANNAMYCIN” (Board of Regents, The University of Texas System, priority 2019, published 2022).

Assays:
[1] = Pharmacokinetic and organ distribution studies of Annamycin and L-Annamycin; type: in vivo; conditions: CD-1, mouse, lung and plasma, intravenous, 4 mg/kg; AUC, 24 h; read-out: Annamycin levels (AUC, 24 h) in lungs relative to plasma
[2] = tested on: multidrug resistant (MDR) cell lines; conditions: earlier studies; cited from earlier work
P-glycoprotein 1 (P-gp) = P-glycoprotein 1 (P-gp) (Homo sapiens, UniProt P08183); conditions: earlier studies; cited from earlier work
Chain of P-glycoprotein 1 (P-gp) (P08183 whole entry, species assumed): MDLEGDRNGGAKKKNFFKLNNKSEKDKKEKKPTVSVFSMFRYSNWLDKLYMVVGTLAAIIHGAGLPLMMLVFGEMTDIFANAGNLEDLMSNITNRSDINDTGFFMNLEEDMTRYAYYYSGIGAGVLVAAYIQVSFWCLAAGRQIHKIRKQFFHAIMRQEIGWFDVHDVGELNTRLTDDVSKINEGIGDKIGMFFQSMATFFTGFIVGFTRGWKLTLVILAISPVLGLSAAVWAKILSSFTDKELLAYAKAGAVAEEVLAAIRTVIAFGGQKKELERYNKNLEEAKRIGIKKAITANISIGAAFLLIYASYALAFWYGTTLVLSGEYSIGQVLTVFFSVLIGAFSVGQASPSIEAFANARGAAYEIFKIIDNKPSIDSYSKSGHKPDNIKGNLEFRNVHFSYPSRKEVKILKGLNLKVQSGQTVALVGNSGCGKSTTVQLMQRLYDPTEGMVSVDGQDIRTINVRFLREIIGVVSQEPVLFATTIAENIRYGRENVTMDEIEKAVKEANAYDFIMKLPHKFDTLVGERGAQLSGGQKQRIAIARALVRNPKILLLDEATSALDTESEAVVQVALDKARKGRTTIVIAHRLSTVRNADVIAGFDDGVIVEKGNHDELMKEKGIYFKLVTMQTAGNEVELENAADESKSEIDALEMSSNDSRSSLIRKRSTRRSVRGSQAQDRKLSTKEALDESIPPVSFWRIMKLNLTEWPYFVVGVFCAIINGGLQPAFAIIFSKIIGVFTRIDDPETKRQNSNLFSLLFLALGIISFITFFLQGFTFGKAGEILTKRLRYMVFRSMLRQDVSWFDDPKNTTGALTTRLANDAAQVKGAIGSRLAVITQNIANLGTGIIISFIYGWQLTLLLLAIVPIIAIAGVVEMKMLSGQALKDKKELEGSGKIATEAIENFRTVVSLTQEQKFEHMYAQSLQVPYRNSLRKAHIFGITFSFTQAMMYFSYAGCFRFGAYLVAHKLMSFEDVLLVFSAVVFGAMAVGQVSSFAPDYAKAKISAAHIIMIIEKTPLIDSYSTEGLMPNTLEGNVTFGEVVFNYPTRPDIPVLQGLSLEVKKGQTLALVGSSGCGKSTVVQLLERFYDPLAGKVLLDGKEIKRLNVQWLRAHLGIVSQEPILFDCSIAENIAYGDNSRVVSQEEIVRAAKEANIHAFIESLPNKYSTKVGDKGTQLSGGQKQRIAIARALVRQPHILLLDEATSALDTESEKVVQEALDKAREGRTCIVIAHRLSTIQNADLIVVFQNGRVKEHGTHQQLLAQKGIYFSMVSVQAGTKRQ

Compound: C[C@@H]1O[C@@H](O[C@H]2C[C@](O)(C(=O)CO)Cc3c(O)c4c(c(O)c32)C(=O)c2ccccc2C4=O)[C@H](I)[C@H](O)[C@H]1O [Annamycin, (7S,9S)-7-(((2R,3R,4R,5R,6S)-4,5-dihydroxy-3-iodo-6-methyltetrahydro-2H-pyran-2-yl)oxy)-6,9,11-trihydroxy-9-(2-hydroxyacetyl)-7,8,9,10-tetrahydrotetracene-5,12-dione]
- Kp [1]: > 10
- cross-resistance with doxorubicin (DOX) [2]: not cross-resistant
- substrate for P-glycoprotein 1 (P-gp) (P-glycoprotein 1 (P-gp)): poor substrate
